Reference: patent US8710089B2, “Triazole derivatives as ghrelin analogue ligands of growth hormone secretagogue receptors” (Zentaris GmbH, priority 2005, dated 2014)

Each molecule was assayed against T1, human GHS-R 1a (Homo sapiens, UniProt Q92847) (assay: GHS-R 1a receptor-ligand binding assay (membrane preparations from transfected LLC PK-1 cells)). Conditions: displacement of 125I-His9-ghrelin (60 pM); membranes of LLC PK-1 cells transfected with human GHS-R 1a; mean of at least two independent experiments in triplicates.
T1 construct: expressed in transfected cells; host or cells: LLC PK-1 porcine renal epithelial cells (ECACC No. 86121112), isolated plasma membranes
Protocol: (J. Med. […] Med. Chem. 2003, 46: 1191-1203), were incubated in homogenization buffer HB [50 mM Tris (pH 7.3), 5 mM MgCl2, 2.5 mM EDTA, and 30 μg/mL bacitracin (Sigma)] for 60 min at 25° C. (steady-state conditions) with 60 pM ^125I-[…]-ghrelin (Amersham) in the presence or absence of competing compounds (compounds of the invention). […] Nonspecific binding was defined using an excess (10^-6 M) of ghrelin. The binding reaction was stopped by addition of 4 mL of ice-cold HB followed by rapid filtration over Whatman GP/C filters presoaked with 0.5% polyethyleneimine to prevent excessive binding of radioligand to the filters. […] IC50 values given are the mean of at least two independent experiments performed in triplicates.

T1 sequence (Q92847 whole entry): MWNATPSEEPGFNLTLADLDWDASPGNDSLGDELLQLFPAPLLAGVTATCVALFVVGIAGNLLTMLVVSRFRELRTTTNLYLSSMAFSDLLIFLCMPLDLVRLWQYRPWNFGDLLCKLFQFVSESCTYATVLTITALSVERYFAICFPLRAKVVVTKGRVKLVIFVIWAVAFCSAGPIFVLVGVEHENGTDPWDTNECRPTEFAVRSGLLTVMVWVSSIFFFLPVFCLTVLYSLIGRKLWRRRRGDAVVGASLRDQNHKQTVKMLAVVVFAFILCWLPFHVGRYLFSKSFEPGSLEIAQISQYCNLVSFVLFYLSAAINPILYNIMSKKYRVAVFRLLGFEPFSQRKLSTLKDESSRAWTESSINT

Compound	IC50 [nM]
Cc1ccc(Cn2c(CCCc3ccccc3)nnc2[C@@H](Cc2c[nH]c3ccccc23)NC(=O)C(C)(C)N)cc1 [compound 33, (R)—N-(1-(4-(4-methylbenzyl)-5-(3-phenylpropyl)-4H-1,2,4-triazol-3-yl)-2-(1H-indol-3-yl)ethyl)-2-amino-2-methylpropanamide]	30
Cc1ccc(Cn2c(CCc3c[nH]c4ccccc34)nnc2[C@@H](Cc2c[nH]c3ccccc23)NC(=O)C(C)(C)N)cc1 [compound 34, (R)—N-(1-(5-(2-(1H-indol-3-yl)ethyl)-4-(4-methylbenzyl)-4H-1,2,4-triazol-3-yl)-2-(1H-indol-3-yl)ethyl)-2-amino-2-methylpropanamide]	28
COc1ccc(Cn2c(CCc3c[nH]c4ccccc34)nnc2[C@@H](Cc2c[nH]c3ccccc23)NC(=O)C2CCCCN2)c(OC)c1 (stereo partly drawn) [compound 36, (R)—N-(1-(5-(2-(1H-indol-3-yl)ethyl)-4-(2,4-dimethoxybenzyl)-4H-1,2,4-triazol-3-yl)-2-(1H-indol-3-yl)ethyl)piperidine-2-carboxamide]	53
O=C(N[C@H](Cc1c[nH]c2ccccc12)c1nnc(CCc2c[nH]c3ccccc23)n1Cc1ccccc1)C1CCNCC1 [compound 54, (R)—N-(1-(5-(2-(1H-indol-3-yl)ethyl)-4-benzyl-4H-1,2,4-triazol-3-yl)-2-(1H-indol-3-yl)ethyl)piperidine-4-carboxamide]	35
O=C(Cc1ccccn1)N[C@H](Cc1c[nH]c2ccccc12)c1nnc(CCc2c[nH]c3ccccc23)n1Cc1ccccc1 [compound 60, (R)—N-(1-(5-(2-(1H-indol-3-yl)ethyl)-4-benzyl-4H-1,2,4-triazol-3-yl)-2-(1H-indol-3-yl)ethyl)-2-(pyridin-2-yl)acetamide]	61
COc1ccc(Cn2c(CCc3c[nH]c4ccccc34)nnc2[C@@H](Cc2c[nH]c3ccccc23)NC(=O)Cc2ccccn2)c(OC)c1 [compound 61, (R)—N-(1-(5-(2-(1H-indol-3-yl)ethyl)-4-(2,4-dimethoxybenzyl)-4H-1,2,4-triazol-3-yl)-2-(1H-indol-3-yl)ethyl)-2-(pyridin-2-yl)acetamide]	34
COc1ccc(Cn2c(CCc3ccccc3)nnc2[C@@H](Cc2c[nH]c3ccccc23)NC(=O)C2CCNCC2)c(OC)c1 [compound 62, (R)—N-(1-(4-(2,4-dimethoxybenzyl)-5-phenethyl-4H-1,2,4-triazol-3-yl)-2-(1H-indol-3-yl)ethyl)piperidine-4-carboxamide]	0.9
COc1ccc(Cn2c(CCc3ccccc3)nnc2[C@@H](Cc2c[nH]c3ccccc23)NC(=O)c2ccncc2)c(OC)c1 [compound 65, (R)—N-(1-(4-(2,4-dimethoxybenzyl)-5-phenethyl-4H-1,2,4-triazol-3-yl)-2-(1H-indol-3-yl)ethyl)isonicotinamide]	58
COc1ccc(Cn2c(CCc3ccccc3)nnc2[C@@H](Cc2c[nH]c3ccccc23)NC(=O)c2cnccn2)c(OC)c1 [compound 66, (R)—N-(1-(4-(2,4-dimethoxybenzyl)-5-phenethyl-4H-1,2,4-triazol-3-yl)-2-(1H-indol-3-yl)ethyl)pyrazine-2-carboxamide]	8
COc1ccc(Cn2c(CCc3c[nH]c4ccccc34)nnc2[C@@H](Cc2c[nH]c3ccccc23)NC(=O)CN)c(OC)c1 [compound 69, (R)—N-(1-(5-(2-(1H-indol-3-yl)ethyl)-4-(2,4-dimethoxybenzyl)-4H-1,2,4-triazol-3-yl)-2-(1H-indol-3-yl)ethyl)-2-aminoacetamide]	38
COc1ccc(Cn2c(CCc3c[nH]c4ccccc34)nnc2[C@@H](Cc2c[nH]c3ccccc23)NC(=O)[C@@H]2CCCN2)c(OC)c1 [compound 70, (S)—N—((R)-1-(5-(2-(1H-indol-3-yl)ethyl)-4-(2,4-dimethoxybenzyl)-4H-1,2,4-triazol-3-yl)-2-(1H-indol-3-yl)ethyl)pyrrolidine-2-carboxamide]	6
COc1ccc(Cn2c(CCc3c[nH]c4ccccc34)nnc2[C@@H](Cc2c[nH]c3ccccc23)NC(=O)c2ccccn2)c(OC)c1 [compound 73, (R)—N-(1-(5-(2-(1H-indol-3-yl)ethyl)-4-(2,4-dimethoxybenzyl)-4H-1,2,4-triazol-3-yl)-2-(1H-indol-3-yl)ethyl)picolinamide]	1.8

Next, values leading:

IC50 [nM]	Compound
136	Cc1ccc(Cn2c(CCc3ccccc3)nnc2[C@@H](Cc2c[nH]c3ccccc23)NC(=O)C(C)(C)N)cc1 [compound 37, (R)—N-(1-(4-(4-methylbenzyl)-5-phenethyl-4H-1,2,4-triazol-3-yl)-2-(1H-indol-3-yl)ethyl)-2-amino-2-methylpropanamide]
249	COc1ccc(Cn2c(CCc3ccccc3)nnc2[C@@H](Cc2c[nH]c3ccccc23)NC(=O)[C@@H]2C[C@@H](O)CN2)cc1 [compound 40, (2S,4R)—N—((R)-1-(4-(4-methoxybenzyl)-5-phenethyl-4H-1,2,4-triazol-3-yl)-2-(1H-indol-3-yl)ethyl)-4-hydroxypyrrolidine-2-carboxamide]
16	COc1ccc(Cn2c(CCc3ccccc3)nnc2[C@@H](Cc2c[nH]c3ccccc23)NC(=O)[C@H]2CCCNC2)cc1 [compound 41, (S)—N—((R)-1-(4-(4-methoxybenzyl)-5-phenethyl-4H-1,2,4-triazol-3-yl)-2-(1H-indol-3-yl)ethyl)piperidine-3-carboxamide]
7	COc1ccc(Cn2c(CCc3ccccc3)nnc2[C@@H](Cc2c[nH]c3ccccc23)NC(=O)[C@@H]2CCCNC2)cc1 [compound 42, (R)—N—((R)-1-(4-(4-methoxybenzyl)-5-phenethyl-4H-1,2,4-triazol-3-yl)-2-(1H-indol-3-yl)ethyl)piperidine-3-carboxamide]
44	CCc1ccc(Cn2c(CCc3ccccc3)nnc2[C@@H](Cc2c[nH]c3ccccc23)NC(=O)C(C)(C)N)cc1 [compound 43, (R)—N-(1-(4-(4-ethylbenzyl)-5-phenethyl-4H-1,2,4-triazol-3-yl)-2-(1H-indol-3-yl)ethyl)-2-amino-2-methylpropanamide]
0.3	COc1ccc(Cn2c(CCc3c[nH]c4ccccc34)nnc2[C@@H](Cc2c[nH]c3ccccc23)NC(=O)C2CCNCC2)cc1 [compound 45, (R)—N-(1-(5-(2-(1H-indol-3-yl)ethyl)-4-(4-methoxybenzyl)-4H-1,2,4-triazol-3-yl)-2-(1H-indol-3-yl)ethyl)piperidine-4-carboxamide]
12	COc1ccc(Cn2c(CCc3ccccc3)nnc2[C@@H](Cc2c[nH]c3ccccc23)NC(=O)[C@@H]2CCCN2)cc1 [compound 46, (S)—N—((R)-1-(4-(4-methoxybenzyl)-5-phenethyl-4H-1,2,4-triazol-3-yl)-2-(1H-indol-3-yl)ethyl)pyrrolidine-2-carboxamide]
3	COc1ccc(Cn2c(CCc3ccccc3)nnc2[C@@H](Cc2c[nH]c3ccccc23)NC(=O)Cc2ccccn2)cc1 [compound 51, (R)—N-(1-(4-(4-methoxybenzyl)-5-phenethyl-4H-1,2,4-triazol-3-yl)-2-(1H-indol-3-yl)ethyl)-2-(pyridin-2-yl)acetamide]
18	COc1ccc(Cn2c(CCc3ccccc3)nnc2[C@@H](Cc2c[nH]c3ccccc23)NC(=O)C2CCCCC2)cc1 [compound 53, (R)—N-(1-(4-(4-methoxybenzyl)-5-phenethyl-4H-1,2,4-triazol-3-yl)-2-(1H-indol-3-yl)ethyl)cyclohexanecarboxamide]
59	COc1ccc(Cn2c(CCc3ccccc3)nnc2[C@@H](Cc2c[nH]c3ccccc23)NC(=O)CCN)cc1 [compound 56, (R)—N-(1-(4-(4-methoxybenzyl)-5-phenethyl-4H-1,2,4-triazol-3-yl)-2-(1H-indol-3-yl)ethyl)-3-aminopropanamide]
140	COc1ccc(Cn2c(CCc3ccccc3)nnc2[C@@H](Cc2c[nH]c3ccccc23)NC(=O)[C@H](C)N)cc1 [compound 57, (S)—N—((R)-1-(4-(4-methoxybenzyl)-5-phenethyl-4H-1,2,4-triazol-3-yl)-2-(1H-indol-3-yl)ethyl)-2-aminopropanamide]
29	COc1ccc(Cn2c(CCc3ccccc3)nnc2[C@@H](Cc2c[nH]c3ccccc23)NC(=O)Cc2cccnc2)cc1 [compound 58, (R)—N-(1-(4-(4-methoxybenzyl)-5-phenethyl-4H-1,2,4-triazol-3-yl)-2-(1H-indol-3-yl)ethyl)-2-(pyridin-3-yl)acetamide]
173	COc1ccc(Cn2c(CCc3ccccc3)nnc2[C@@H](Cc2c[nH]c3ccccc23)NC(=O)CCc2cccnc2)cc1 [compound 59, (R)—N-(1-(4-(4-methoxybenzyl)-5-phenethyl-4H-1,2,4-triazol-3-yl)-2-(1H-indol-3-yl)ethyl)-3-(pyridin-3-yl)propanamide]
210	COc1ccc(Cn2c(CCc3ccccc3)nnc2[C@@H](Cc2c[nH]c3ccccc23)NC(=O)[C@H]2CCCCN2)c(OC)c1 [compound 63, (R)—N—((R)-1-(4-(2,4-dimethoxybenzyl)-5-phenethyl-4H-1,2,4-triazol-3-yl)-2-(1H-indol-3-yl)ethyl)piperidine-2-carboxamide]
35	COc1ccc(Cn2c(CCc3ccccc3)nnc2[C@@H](Cc2c[nH]c3ccccc23)NC(=O)C2CNCCN2)c(OC)c1 (stereo partly shown) [compound 67]
44	COc1ccc(Cn2c(CCc3ccccc3)nnc2[C@@H](Cc2c[nH]c3ccccc23)NC(=O)[C@@H]2CCCN2)c(OC)c1 [compound 68, (S)—N—((R)-1-(4-(2,4-dimethoxybenzyl)-5-phenethyl-4H-1,2,4-triazol-3-yl)-2-(1H-indol-3-yl)ethyl)pyrrolidine-2-carboxamide]
